# Test results: article PMC12715762, “Discovery of VU6052254: A Novel, Potent M1 Positive Allosteric Modulator” (ACS Chemical Neuroscience, 2025)
# “Also recorded” adds a separate entry of the source.
# Tests used:
# [1] = molecular target: Epidermal Growth Factor (EGF) (Homo sapiens, UniProt P00533); test: Eurofins radioligand binding
# CYP450 = test: time-dependent CYP450 inhibition; type: in vitro ADME; conditions: result in words
# Tachykinin NK1 = Tachykinin NK1 (Homo sapiens, UniProt P25103); test: Eurofins radioligand binding
# Tachykinin NK1, sequence (P25103 whole entry): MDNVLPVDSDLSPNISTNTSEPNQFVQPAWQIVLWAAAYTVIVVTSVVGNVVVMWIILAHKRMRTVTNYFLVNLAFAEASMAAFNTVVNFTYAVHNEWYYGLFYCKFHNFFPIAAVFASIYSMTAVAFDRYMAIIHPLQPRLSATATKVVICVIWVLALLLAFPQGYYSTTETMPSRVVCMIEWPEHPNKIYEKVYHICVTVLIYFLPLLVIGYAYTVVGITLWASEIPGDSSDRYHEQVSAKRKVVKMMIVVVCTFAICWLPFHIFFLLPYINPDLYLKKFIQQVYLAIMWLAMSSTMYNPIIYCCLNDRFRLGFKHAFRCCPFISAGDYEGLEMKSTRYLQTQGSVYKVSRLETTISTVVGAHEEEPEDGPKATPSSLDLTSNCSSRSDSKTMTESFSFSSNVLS
# [2] = molecular target: Leukotriene, Cysteinyl CysLT1 (Homo sapiens, UniProt Q9Y271); test: Eurofins radioligand binding
# Leukotriene, Cysteinyl CysLT1, sequence (Q9Y271 whole entry): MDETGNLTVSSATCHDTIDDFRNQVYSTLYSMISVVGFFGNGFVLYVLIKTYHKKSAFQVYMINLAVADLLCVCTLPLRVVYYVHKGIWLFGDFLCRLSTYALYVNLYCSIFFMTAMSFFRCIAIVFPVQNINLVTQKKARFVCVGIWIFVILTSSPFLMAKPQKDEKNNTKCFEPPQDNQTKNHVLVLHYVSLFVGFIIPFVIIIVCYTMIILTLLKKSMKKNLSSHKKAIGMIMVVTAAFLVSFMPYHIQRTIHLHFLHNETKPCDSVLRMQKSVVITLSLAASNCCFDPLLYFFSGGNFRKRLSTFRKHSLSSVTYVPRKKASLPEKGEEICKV
# [3] = brain homogenate binding (rat); type: in vitro ADME; conditions: pH 7.4, rat (r), read-out: fu,brain
# Method: (§1) Plasma protein binding and Brain homogenate binding: Determination of fraction unbound (f u) in plasma was conducted in vitro via equilibrium dialysis using HTDialysis (HTD) membrane plates. The top half of the plate was filled with 100 uL of Dubelco’s Phosphate Buffered Saline, pH 7.4 (DPBS). Compounds were diluted into plasma from each species (5 µM final concentration), which was aliquoted in triplicate to the ‘bottom half’ of the prepared HTD plate wells. The HTD plate was sealed and incubated for 6 hours at 37 °C. Following incubation, each well (both top and bottom halves) were transferred (20 µL) to the corresponding wells of a 96-shallow-well (V-bottom) plate. […]
# (§2) The unbound fraction (f u) was calculated following the equation below, and mean values for each species were calculated from 3 replicates.
# (§3) A similar approach was used to determine the degree of brain homogenate binding, which employed the same methodology and procedure with the following modifications: 1) a final compound concentration of 1 μM was used, 2) naïve rat brains were homogenized in DPBS (1:3 composition of brain: DPBS, w/w) using a Mini-Bead Beater™ machine in order to obtain brain homogenate, which was then treated in the same manner as the plasma samples in the previously described plasma protein binding assay. Fraction unbound for both plasma and brain samples was determined using Equation 4. […]
# [4] = 14-day rat toxicology and toxicokinetic study; type: in vivo; conditions: both sexes, rat, plasma, po, PEG-400, rat
# Method: (§4) PAM 7, after a 250 g scale-up, advanced into 14-day rat toxicology studies, with vehicle (PEG-400), 30 mg/kg PO and 300 mg/kg PO cohorts, N = 6 per sex per cohort. […] Higher serum creatinine concentrations were however noted in males at both dose levels (+100% at 30 mg/kg/day and +300% at 300 mg/kg/day). […] Based on the observations of correlative clinical and anatomic kidney toxicity findings in an exploratory 14-day toxicity and toxicokinetics rat study, in conjunction with uncertain margins to projected systemic human therapeutic efficacy and CYP3A4 induction concerns, the development of PAM 7 was discontinued.
# rats = test: 14-day rat toxicology and toxicokinetic study; type: in vivo; conditions: for cholinergic/SLUDGE adverse effects in 14-day rat study: 30 and 300 mg/kg PO; for change in serum creatinine concentration: males
# Method: as §4
# [5] = plasma protein binding, equilibrium dialysis (rat); type: in vitro ADME; conditions: pH 7.4, rat (r), read-out: fu,plasma
# Method: as §1, §2, §3
# mice = test: modified Irwin neurological test battery; type: in vivo, mouse; conditions: result in words
# Method: To assess peripheral cholinergic toxicity, a modified Irwin neurological battery was performed to score autonomic or somatosensory side effects (Figure ).
# Adrenergic α1B = Adrenergic α1B (Homo sapiens, UniProt P35368); test: Eurofins radioligand binding
# Adrenergic α1B, sequence (P35368 whole entry): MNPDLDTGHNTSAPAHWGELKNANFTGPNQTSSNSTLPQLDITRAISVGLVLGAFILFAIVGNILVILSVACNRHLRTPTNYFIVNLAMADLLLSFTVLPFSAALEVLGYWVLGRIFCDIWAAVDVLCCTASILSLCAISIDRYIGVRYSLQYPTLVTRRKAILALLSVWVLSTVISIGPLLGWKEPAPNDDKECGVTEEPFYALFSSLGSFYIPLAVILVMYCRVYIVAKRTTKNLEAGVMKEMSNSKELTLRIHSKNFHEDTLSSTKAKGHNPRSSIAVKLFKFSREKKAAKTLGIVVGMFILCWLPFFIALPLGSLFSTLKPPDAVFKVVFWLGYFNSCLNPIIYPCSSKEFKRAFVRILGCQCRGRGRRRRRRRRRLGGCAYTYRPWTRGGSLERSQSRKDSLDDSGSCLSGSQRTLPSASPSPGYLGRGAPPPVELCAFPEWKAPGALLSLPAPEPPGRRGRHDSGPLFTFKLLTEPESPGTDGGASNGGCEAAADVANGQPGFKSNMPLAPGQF
# Serotonin (5-HT2B) = Serotonin (5-HT2B) (Homo sapiens, UniProt P41595); test: Eurofins radioligand binding
# Serotonin (5-HT2B), sequence (P41595 whole entry): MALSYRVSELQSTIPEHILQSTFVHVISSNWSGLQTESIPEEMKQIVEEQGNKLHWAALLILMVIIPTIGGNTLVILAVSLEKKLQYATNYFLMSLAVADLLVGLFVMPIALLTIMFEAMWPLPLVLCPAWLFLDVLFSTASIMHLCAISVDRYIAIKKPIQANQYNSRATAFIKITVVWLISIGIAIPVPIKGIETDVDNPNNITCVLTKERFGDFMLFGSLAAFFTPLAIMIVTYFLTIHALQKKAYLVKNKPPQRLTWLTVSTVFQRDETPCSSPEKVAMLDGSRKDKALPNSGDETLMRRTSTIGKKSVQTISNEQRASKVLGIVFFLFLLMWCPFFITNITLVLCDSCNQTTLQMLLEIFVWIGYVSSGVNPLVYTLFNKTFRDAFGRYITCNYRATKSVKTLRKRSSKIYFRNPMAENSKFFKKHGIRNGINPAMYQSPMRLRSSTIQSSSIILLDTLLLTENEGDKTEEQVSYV
# GSH trapping = type: in vitro ADME; conditions: human microsomes; result in words
# Glutamate, NMDA, Glycine = test: Eurofins radioligand binding; conditions: Rat
# [6] = 300 mg/kg, Day 14, 300 mg/kg PO
# Epidermal Growth Factor (EGF), sequence (P00533 25-1210): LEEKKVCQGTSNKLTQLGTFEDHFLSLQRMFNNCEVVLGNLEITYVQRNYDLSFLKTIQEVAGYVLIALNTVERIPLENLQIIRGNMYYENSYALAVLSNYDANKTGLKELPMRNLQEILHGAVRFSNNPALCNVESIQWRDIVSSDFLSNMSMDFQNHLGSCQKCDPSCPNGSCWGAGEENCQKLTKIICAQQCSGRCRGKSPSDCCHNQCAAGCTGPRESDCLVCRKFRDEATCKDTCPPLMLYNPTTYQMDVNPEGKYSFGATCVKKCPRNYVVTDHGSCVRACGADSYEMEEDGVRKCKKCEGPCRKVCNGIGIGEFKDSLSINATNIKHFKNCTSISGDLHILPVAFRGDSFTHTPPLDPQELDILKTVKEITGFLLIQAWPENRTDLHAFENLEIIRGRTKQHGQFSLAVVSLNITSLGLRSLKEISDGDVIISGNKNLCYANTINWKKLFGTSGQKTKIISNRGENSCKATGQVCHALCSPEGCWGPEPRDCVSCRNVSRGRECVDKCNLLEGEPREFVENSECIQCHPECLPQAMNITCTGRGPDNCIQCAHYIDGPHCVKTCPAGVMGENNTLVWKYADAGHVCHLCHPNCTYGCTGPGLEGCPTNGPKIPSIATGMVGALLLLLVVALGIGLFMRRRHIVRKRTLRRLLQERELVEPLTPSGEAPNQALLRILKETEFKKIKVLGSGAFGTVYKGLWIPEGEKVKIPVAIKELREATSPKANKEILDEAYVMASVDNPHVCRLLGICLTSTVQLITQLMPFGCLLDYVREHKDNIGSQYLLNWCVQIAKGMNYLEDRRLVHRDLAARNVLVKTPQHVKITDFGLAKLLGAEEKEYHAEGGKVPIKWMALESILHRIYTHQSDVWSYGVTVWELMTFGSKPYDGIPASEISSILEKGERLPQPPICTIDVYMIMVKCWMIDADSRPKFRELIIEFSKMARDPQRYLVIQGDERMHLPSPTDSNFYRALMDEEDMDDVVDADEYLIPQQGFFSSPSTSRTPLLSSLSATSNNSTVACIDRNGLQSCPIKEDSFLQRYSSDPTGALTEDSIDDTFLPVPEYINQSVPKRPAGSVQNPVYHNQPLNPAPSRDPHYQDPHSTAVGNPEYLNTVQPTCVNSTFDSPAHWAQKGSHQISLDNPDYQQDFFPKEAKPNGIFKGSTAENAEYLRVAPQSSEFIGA
compound,measurement,setting,value
Cn1cc2c(-c3cc(F)c(CN4Cc5ncccc5C4=O)c(F)c3)ccc(C(C)(C)O)c2n1 [compound 7],inhibition at 10 µM,[1],-14%
same,time-dependent CYP450 inhibition,CYP450,no evidence of time-dependent inhibition; also recorded: no CYP450 inhibition or time-dependent CYP450 inhibition liabilities
same,inhibition at 10 µM,Tachykinin NK1,4%
same,inhibition at 10 µM,[2],8%
same,"fraction unbound at 6 h, 1 μM",[3],0.027
same,AUC(0-t),"[4]; 30 mg/kg, Day 1, 30 mg/kg PO",224 µM·h
same,Cmax,"[4]; 30 mg/kg, Day 1, 30 mg/kg PO",20.9 µM
same,AUC(0-t),"[4]; 30 mg/kg, Day 14, 30 mg/kg PO",107 µM·h
same,Cmax,"[4]; 30 mg/kg, Day 14, 30 mg/kg PO",10 µM
same,AUC(0-t),"[4]; 300 mg/kg, Day 1, 300 mg/kg PO",758 µM·h
same,Cmax,"[4]; 300 mg/kg, Day 1, 300 mg/kg PO",37.9 µM
same,AUC(0-t),[4]; [6],909 µM·h
same,Cmax,[4]; [6],52.9 µM
same,microscopic pathology of kidney,"rats; 300 mg/kg/day, result in words","pyknotic cells were also seen in collecting tubules, and less extensively, in the renal papilla"
same,cholinergic/SLUDGE adverse effects in 14-day rat study,rats; result in words,No cholinergic/SLUDGE adverse effects were observed
same,cholinergic/SLUDGE adverse effects in 14-day rat study,"rats; result in words, listed as VU6052254",no cholinergic adverse effects
same,microscopic pathology of renal cortex and medulla,"rats; both dose levels, result in words",dose-related increase in number of pyknotic cells in the lumen of descending tubules/proximal collecting tubules
same,total plasma concentration relative to the plasma concentration at MED in the CFC assay (0.3 mg/kg PO),rats; first of the two printed values (30 mg/kg cohort implied),125 x
same,fibrinogen concentration,"rats; males administered 300 mg/kg, result in words",minimally higher fibrinogen concentration
same,hematology test results,"rats; males administered up to 30 mg/kg, result in words",no PAM 7-related effects noted in hematology test results
same,change in serum creatinine concentration,rats; 30 mg/kg/day,+100%
same,change in serum creatinine concentration,rats; 300 mg/kg/day,+300%
same,organ weights or histology,rats; result in words,no gross changes on organ weights or histology
same,total plasma concentration relative to the plasma concentration at MED in the CFC assay (0.3 mg/kg PO),rats; second of the two printed values (300 mg/kg cohort implied),227 x
same,"fraction unbound at 6 h, 5 µM",[5],0.023
same,adverse effects / SLUDGE in modified Irwin battery,"mice; 56.6 mg/kg IP, 6 h time course",minimal adverse effects or SLUDGE were noted
same,adverse effects / SLUDGE in modified Irwin battery,"mice; 56.6 mg/kg IP, 6 h time course, listed as VU6052254",minimal adverse cholinergic events (SLUDGE) were noted
same,adverse effects / SLUDGE in modified Irwin battery,mice; 100 mg/kg IP,more pronounced adverse effects seen
same,adverse effects / SLUDGE in modified Irwin battery,"mice; 100 mg/kg IP, listed as VU6052254",adverse cholinergic events (SLUDGE) were noted
same,inhibition at 10 µM,Adrenergic α1B,8%
same,inhibition at 10 µM,Serotonin (5-HT2B),20%
same,GSH trapping,GSH trapping,no evidence of GSH trapping
same,% Inhibition at 10 µM,"Glutamate, NMDA, Glycine",-9%
